Measured values reported in PMC8185074, “Anchor extension: a structure-guided approach to design cyclic peptides targeting enzyme active sites” (Nature Communications, 2021).
Peptide text beside a SMILES is read from it.

Assays:
Type in all cases: biochemical
HDAC2 [1] = target: T1, HDAC2 (Homo sapiens, UniProt Q92769); experiment: Initial HDAC2 IC50 estimate (BPS Biosciences HDAC fluorogenic assay kit); conditions: Supplementary Dataset 2; read-out: HDAC2 activity (initial activity)
T1 construct: purchased Reaction Biology Corporation (assay run by the CRO)
T1 sequence (Q92769 whole entry): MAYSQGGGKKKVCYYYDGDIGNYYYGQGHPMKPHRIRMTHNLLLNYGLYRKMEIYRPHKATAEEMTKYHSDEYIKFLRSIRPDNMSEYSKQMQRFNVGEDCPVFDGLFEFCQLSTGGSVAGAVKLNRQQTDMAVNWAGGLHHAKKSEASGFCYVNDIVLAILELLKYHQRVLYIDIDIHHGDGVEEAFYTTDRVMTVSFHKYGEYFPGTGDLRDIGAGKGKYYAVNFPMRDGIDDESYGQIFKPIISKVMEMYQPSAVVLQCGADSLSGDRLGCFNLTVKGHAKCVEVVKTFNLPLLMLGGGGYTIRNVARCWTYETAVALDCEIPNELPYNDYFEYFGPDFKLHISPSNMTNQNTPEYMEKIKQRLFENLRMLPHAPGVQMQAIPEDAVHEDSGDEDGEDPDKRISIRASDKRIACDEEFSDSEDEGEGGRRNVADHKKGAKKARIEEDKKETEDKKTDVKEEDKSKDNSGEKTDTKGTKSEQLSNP
Outline: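 Inhibition measured by kit-based fluorogenic HDAC activity assays, with each point in duplicate or triplicate. Values come from a full 1 µM–100 pM series (1:10 steps) or are range estimates from just 20 nM and 200 nM.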

HDAC1 = target: T2, HDAC1 (Homo sapiens, UniProt Q13547); experiment: HDAC1 inhibition, full IC50 measurement (Reaction Biology; fluorogenic p53 peptide RHKK(Ac)AMC); conditions: t1/t2 replicates
T2 construct: purchased Reaction Biology Corporation (assay run by the CRO)
T2 sequence (Q13547 whole entry): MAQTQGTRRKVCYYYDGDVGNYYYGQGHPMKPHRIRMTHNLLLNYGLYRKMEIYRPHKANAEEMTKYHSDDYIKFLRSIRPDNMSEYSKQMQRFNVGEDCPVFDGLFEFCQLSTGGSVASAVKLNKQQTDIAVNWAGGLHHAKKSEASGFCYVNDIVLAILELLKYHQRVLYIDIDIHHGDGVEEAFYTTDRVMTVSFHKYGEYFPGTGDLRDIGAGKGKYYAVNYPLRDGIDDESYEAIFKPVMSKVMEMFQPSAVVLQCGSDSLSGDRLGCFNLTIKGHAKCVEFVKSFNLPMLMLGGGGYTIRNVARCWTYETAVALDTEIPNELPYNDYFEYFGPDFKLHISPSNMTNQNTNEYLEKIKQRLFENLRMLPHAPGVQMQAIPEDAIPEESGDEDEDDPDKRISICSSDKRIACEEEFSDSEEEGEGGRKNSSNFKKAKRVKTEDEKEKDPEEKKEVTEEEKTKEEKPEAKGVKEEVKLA
Outline: (§1)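 Reaction: enzyme plus acoustically dispensed peptide inhibitor, 50 μM RHKK(Ac)AMC substrate, pH 8.0 Tris buffer with BSA and 1% DMSO, 1 h, 30 °C. Duplicates averaged.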

HDAC2 [2] = target: T1, HDAC2; experiment: HDAC2 inhibition, full IC50 measurement (Reaction Biology; fluorogenic p53 peptide RHKK(Ac)AMC)
Outline: as §1

NCCCC[C@@H]1NC(=O)[C@@H]2CCCN2C(=O)[C@H](CC(N)=O)NC(=O)[C@H](CCCCCS)NC(=O)CNC(=O)[C@H](Cc2c[nH]c3ccccc23)NC(=O)[C@@H](CCCCN)NC(=O)[C@H](CCC(N)=O)NC1=O [des1.1.0, SHA-Asn-Pro-Lys-Gln-dLys-Trp-Gly] (HELM PEPTIDE1{G.[O=C([C@H](CCCCCS)N[*:1])[*:2]].N.P.K.Q.[dK].W}$PEPTIDE1,PEPTIDE1,1:R1-8:R2$$$V2.0) was tested, and the IC50 (HDAC2 [1]) was 0.01 to 0.1 µM, the “HDAC1 activity raw data (signal)” value (HDAC1; peptide conc. 1.00E-05 M, listed as des1.1.0_t1) was 20784 and the “HDAC1 activity raw data (signal)” value (HDAC1; peptide conc. 1.00E-05 M, listed as des1.1.0_t2) was 14494. The “HDAC1 activity raw data (signal)” value (HDAC1; peptide conc. 1.11E-06 M, listed as des1.1.0_t1) was 173781, the “HDAC1 activity raw data (signal)” value (HDAC1; peptide conc. 1.11E-06 M, listed as des1.1.0_t2) was 153537 and the “HDAC1 activity raw data (signal)” value (HDAC1; peptide conc. 1.23E-07 M, listed as des1.1.0_t1) was 723204. The “HDAC1 activity raw data (signal)” value (HDAC1; peptide conc. 1.23E-07 M, listed as des1.1.0_t2) was 656726, the “HDAC1 activity raw data (signal)” value (HDAC1; peptide conc. 1.37E-08 M, listed as des1.1.0_t1) was 1174733 and the “HDAC1 activity raw data (signal)” value (HDAC1; peptide conc. 1.37E-08 M, listed as des1.1.0_t2) was 1037204. The “HDAC1 activity raw data (signal)” value (HDAC1; peptide conc. 1.52E-09 M, listed as des1.1.0_t1) was 1283411, the “HDAC1 activity raw data (signal)” value (HDAC1; peptide conc. 1.52E-09 M, listed as des1.1.0_t2) was 1084142 and the “HDAC1 activity raw data (signal)” value (HDAC1; peptide conc. 3.33E-06 M, listed as des1.1.0_t1) was 63841. For the same compound, the “HDAC1 activity raw data (signal)” value (HDAC1; peptide conc. 3.33E-06 M, listed as des1.1.0_t2) was 53160, the “HDAC1 activity raw data (signal)” value (HDAC1; peptide conc. 3.70E-07 M, listed as des1.1.0_t1) was 422237 and the “HDAC1 activity raw data (signal)” value (HDAC1; peptide conc. 3.70E-07 M, listed as des1.1.0_t2) was 392419. For the same compound, the “HDAC1 activity raw data (signal)” value (HDAC1; peptide conc. 4.12E-08 M, listed as des1.1.0_t1) was 1039124, the “HDAC1 activity raw data (signal)” value (HDAC1; peptide conc. 4.12E-08 M, listed as des1.1.0_t2) was 863645 and the “HDAC1 activity raw data (signal)” value (HDAC1; peptide conc. 4.57E-09 M, listed as des1.1.0_t1) was 1182029. For the same compound, the “HDAC1 activity raw data (signal)” value (HDAC1; peptide conc. 4.57E-09 M, listed as des1.1.0_t2) was 1065379, the “HDAC1 activity raw data (signal)” value (HDAC1; peptide conc. 5.08E-10 M, listed as des1.1.0_t1) was 1239936 and the “HDAC1 activity raw data (signal)” value (HDAC1; peptide conc. 5.08E-10 M, listed as des1.1.0_t2) was 1111104. The “HDAC2 activity raw data (signal)” value (HDAC2 [2]; Conc. 1.00E-05 M, t1) was 26927, the “HDAC2 activity raw data (signal)” value (HDAC2 [2]; Conc. 1.00E-05 M, t2) was 32005 and the “HDAC2 activity raw data (signal)” value (HDAC2 [2]; Conc. 1.11E-06 M, t1) was 219707. The “HDAC2 activity raw data (signal)” value (HDAC2 [2]; Conc. 1.11E-06 M, t2) was 218492, the “HDAC2 activity raw data (signal)” value (HDAC2 [2]; Conc. 1.23E-07 M, t1) was 761586 and the “HDAC2 activity raw data (signal)” value (HDAC2 [2]; Conc. 1.23E-07 M, t2) was 802228. For the same compound, the “HDAC2 activity raw data (signal)” value (HDAC2 [2]; Conc. 1.37E-08 M, t1) was 1027147, the “HDAC2 activity raw data (signal)” value (HDAC2 [2]; Conc. 1.37E-08 M, t2) was 1098979 and the “HDAC2 activity raw data (signal)” value (HDAC2 [2]; Conc. 1.52E-09 M, t1) was 1105616. For the same compound, the “HDAC2 activity raw data (signal)” value (HDAC2 [2]; Conc. 1.52E-09 M, t2) was 1105020, the “HDAC2 activity raw data (signal)” value (HDAC2 [2]; Conc. 3.33E-06 M, t1) was 102737 and the “HDAC2 activity raw data (signal)” value (HDAC2 [2]; Conc. 3.33E-06 M, t2) was 85727. For the same compound, the “HDAC2 activity raw data (signal)” value (HDAC2 [2]; Conc. 3.70E-07 M, t1) was 469170, the “HDAC2 activity raw data (signal)” value (HDAC2 [2]; Conc. 3.70E-07 M, t2) was 506124 and the “HDAC2 activity raw data (signal)” value (HDAC2 [2]; Conc. 4.12E-08 M, t1) was 943203. The “HDAC2 activity raw data (signal)” value (HDAC2 [2]; Conc. 4.12E-08 M, t2) was 906297, the “HDAC2 activity raw data (signal)” value (HDAC2 [2]; Conc. 4.57E-09 M, t1) was 1010930 and the “HDAC2 activity raw data (signal)” value (HDAC2 [2]; Conc. 4.57E-09 M, t2) was 1048769. For the same compound, the “HDAC2 activity raw data (signal)” value (HDAC2 [2]; Conc. 5.08E-10 M, t1) was 1134293, the “HDAC2 activity raw data (signal)” value (HDAC2 [2]; Conc. 5.08E-10 M, t2) was 1187103 and the IC50 (HDAC2 [2]; figure legends, Supp. Table 1, read-out: HDAC2 IC50) was 0.289 µM.

With CCCC[C@H]1NC(=O)[C@H](Cc2ccccc2)NC(=O)[C@H](CCCCCS)NC(=O)[C@@H](CCCNC(=N)N)NC(=O)[C@H](CC(=O)O)NC(=O)[C@@H](CO)NC(=O)[C@@H](C)NC(=O)[C@H](CCCCN)NC1=O [des4.3.1, SHA-Phe-dNle-Lys-dAla-dSer-Asp-dArg] (HELM PEPTIDE1{D.[dR].[O=C([C@H](CCCCCS)N[*:1])[*:2]].F.[CCCC[C@@H](N[*:1])C(=O)[*:2]].K.[dA].[dS]}$PEPTIDE1,PEPTIDE1,1:R1-8:R2$$$V2.0) the IC50 (HDAC2 [1]) was 0.35 µM, the “HDAC1 activity raw data (signal)” value (HDAC1; peptide conc. 1.00E-05 M, listed as des4.3.1_t1) was 61312 and the “HDAC1 activity raw data (signal)” value (HDAC1; peptide conc. 1.00E-05 M, listed as des4.3.1_t2) was 56616. For the same compound, the “HDAC1 activity raw data (signal)” value (HDAC1; peptide conc. 1.11E-06 M, listed as des4.3.1_t1) was 524367, the “HDAC1 activity raw data (signal)” value (HDAC1; peptide conc. 1.11E-06 M, listed as des4.3.1_t2) was 474109 and the “HDAC1 activity raw data (signal)” value (HDAC1; peptide conc. 1.23E-07 M, listed as des4.3.1_t1) was 1051662. The “HDAC1 activity raw data (signal)” value (HDAC1; peptide conc. 1.23E-07 M, listed as des4.3.1_t2) was 1036587, the “HDAC1 activity raw data (signal)” value (HDAC1; peptide conc. 1.37E-08 M, listed as des4.3.1_t1) was 1215949 and the “HDAC1 activity raw data (signal)” value (HDAC1; peptide conc. 1.37E-08 M, listed as des4.3.1_t2) was 1295956. For the same compound, the “HDAC1 activity raw data (signal)” value (HDAC1; peptide conc. 1.52E-09 M, listed as des4.3.1_t1) was 1351214, the “HDAC1 activity raw data (signal)” value (HDAC1; peptide conc. 1.52E-09 M, listed as des4.3.1_t2) was 1240672 and the “HDAC1 activity raw data (signal)” value (HDAC1; peptide conc. 3.33E-06 M, listed as des4.3.1_t1) was 212161. The “HDAC1 activity raw data (signal)” value (HDAC1; peptide conc. 3.33E-06 M, listed as des4.3.1_t2) was 198550, the “HDAC1 activity raw data (signal)” value (HDAC1; peptide conc. 3.70E-07 M, listed as des4.3.1_t1) was 878996 and the “HDAC1 activity raw data (signal)” value (HDAC1; peptide conc. 3.70E-07 M, listed as des4.3.1_t2) was 808933. For the same compound, the “HDAC1 activity raw data (signal)” value (HDAC1; peptide conc. 4.12E-08 M, listed as des4.3.1_t1) was 1147207, the “HDAC1 activity raw data (signal)” value (HDAC1; peptide conc. 4.12E-08 M, listed as des4.3.1_t2) was 1235202 and the “HDAC1 activity raw data (signal)” value (HDAC1; peptide conc. 4.57E-09 M, listed as des4.3.1_t1) was 1224928. The “HDAC1 activity raw data (signal)” value (HDAC1; peptide conc. 4.57E-09 M, listed as des4.3.1_t2) was 1148569, the “HDAC1 activity raw data (signal)” value (HDAC1; peptide conc. 5.08E-10 M, listed as des4.3.1_t1) was 1219331 and the “HDAC1 activity raw data (signal)” value (HDAC1; peptide conc. 5.08E-10 M, listed as des4.3.1_t2) was 1171745. The “HDAC2 activity raw data (signal)” value (HDAC2 [2]; Conc. 1.00E-05 M, t1) was 97979, the “HDAC2 activity raw data (signal)” value (HDAC2 [2]; Conc. 1.00E-05 M, t2) was 118920 and the “HDAC2 activity raw data (signal)” value (HDAC2 [2]; Conc. 1.11E-06 M, t1) was 710265. The “HDAC2 activity raw data (signal)” value (HDAC2 [2]; Conc. 1.11E-06 M, t2) was 678505, the “HDAC2 activity raw data (signal)” value (HDAC2 [2]; Conc. 1.23E-07 M, t1) was 1050894 and the “HDAC2 activity raw data (signal)” value (HDAC2 [2]; Conc. 1.23E-07 M, t2) was 1073616. For the same compound, the “HDAC2 activity raw data (signal)” value (HDAC2 [2]; Conc. 1.37E-08 M, t1) was 1089277, the “HDAC2 activity raw data (signal)” value (HDAC2 [2]; Conc. 1.37E-08 M, t2) was 1188700 and the “HDAC2 activity raw data (signal)” value (HDAC2 [2]; Conc. 1.52E-09 M, t1) was 1283576. The “HDAC2 activity raw data (signal)” value (HDAC2 [2]; Conc. 1.52E-09 M, t2) was 1146756, the “HDAC2 activity raw data (signal)” value (HDAC2 [2]; Conc. 3.33E-06 M, t1) was 321418 and the “HDAC2 activity raw data (signal)” value (HDAC2 [2]; Conc. 3.33E-06 M, t2) was 369190. The “HDAC2 activity raw data (signal)” value (HDAC2 [2]; Conc. 3.70E-07 M, t1) was 905304, the “HDAC2 activity raw data (signal)” value (HDAC2 [2]; Conc. 3.70E-07 M, t2) was 972905 and the “HDAC2 activity raw data (signal)” value (HDAC2 [2]; Conc. 4.12E-08 M, t1) was 1002980. The “HDAC2 activity raw data (signal)” value (HDAC2 [2]; Conc. 4.12E-08 M, t2) was 1204296, the “HDAC2 activity raw data (signal)” value (HDAC2 [2]; Conc. 4.57E-09 M, t1) was 1158146 and the “HDAC2 activity raw data (signal)” value (HDAC2 [2]; Conc. 4.57E-09 M, t2) was 1127910. The “HDAC2 activity raw data (signal)” value (HDAC2 [2]; Conc. 5.08E-10 M, t1) was 1185807, the “HDAC2 activity raw data (signal)” value (HDAC2 [2]; Conc. 5.08E-10 M, t2) was 1137899 and the IC50 (HDAC2 [2]; unit printed only in the axis title, read-out: HDAC2 IC50 (printed in dose-response picture)) was 1.5 µM.
